Results on 21 compounds are retold here after patent US7582611B2, “Motilide compounds” (Pfizer Inc., priority 2005, dated 2009).

In general, EC50 refers to the concentration that produces a half-maximal response.

Assay [1] has as its target T1, Motilin Receptor (Oryctolagus cuniculus, UniProt G1T803).
T1 construct: strips of longitudinal smooth muscle were sliced from the segments; from tissue; host or cells: rabbit duodenum longitudinal smooth muscle strips
Description: Tissue based assay for motilin agonist potency (rabbit duodenum contractility). The class given is cell-based. As to the method: The motilin agonist potencies of compounds of this invention were evaluated using a tissue based assay, using rabbit duodenum tissue-based contractility assay, generally following the procedure of Depoortere et al., J. Gastrointestinal Motility, 1, 150-159 (1989), the disclosure of which is incorporated herein by reference. Briefly, this method measures the ability of a compound to induce contractions in rabbit duodenal tissue, a motilin receptor-bearing tissue contractilely responsive to motilin.
Strips of rabbit duodenum were tested and qualified for use in the assay by as follows. Segments of rabbit duodenum, 20-30 cm distal to the pylorus were split longitudinally. The mucosa was removed and 2×2×15 mm strips of longitudinal smooth muscle were sliced from the segments. The strips were bathed in oxygenated Krebs solution at 37° C., with 1.5 g of tension, and contractions measured auxotonically.
The carbachol was then washed away by changing the organ bath buffer twice. The strips were washed again 20±5 minutes following the carbachol contraction. Following this last wash a dose response study was initiated within 10±5 min. Each compound tested was dissolved in dimethylsulfoxide (DMSO) to a final concentration of 10 mM. A series of seven 10× serial dilutions in water was prepared, so that the concentration of the seventh serial dilution was 1.0×10^−6 mM. The first through fifth serial dilutions of the compound were applied, starting with 200 μL of the most dilute solution. After each application, there was a wait of 2±0.5 min, until the response was stable, before the application of the next dose (the next higher concentration serial dilution). The dose was increased in 10-fold increments until a small response was observed. Subsequent doses were the increased in 2- to 5-fold increments, until the maximum response was obtained. At 2±0.5 min after the last drug addition, the strips were dosed with 1 μM carbachol.
The EC50 (concentration producing a half-maximal effect) was calculated as follows. The basal tension was subtracted from the compound-induced tension for each reading. The data points were normalized against the response obtained from 1 μM carbachol at the end of the experiment. The concentration of compound was plotted against the response and fitted to the following equation: R=(Rmax·C)/(EC50+C) where R is the contraction response, Rmax is the maximal contraction response, and C is the concentration of compound. Both R and Rmax are expressed as a fraction of the 1 μM carbachol contraction and range from 0 to 1.

Assay [2] has as its system Streptococcus pneumoniae ATCC 6301. Briefly: Evaluation of antibacterial activity (MIC, serial dilutions on 96-well microtiter plates). The class given is cell-based. As to conditions: ATCC6301, read-out: Antibacterial Activity (MIC, μg/mL).
The mark [3] stands for this setting: rabbit duodenum strips, contraction normalized to 1 μM carbachol, read-out: Motilin Receptor Agonist Activity (EC50).

The structures appear in SMILES notation. Converted amounts (≈) assume the structure as drawn. Where two headings read alike, the source gives them in different places.

T1 sequence (G1T803 1-400): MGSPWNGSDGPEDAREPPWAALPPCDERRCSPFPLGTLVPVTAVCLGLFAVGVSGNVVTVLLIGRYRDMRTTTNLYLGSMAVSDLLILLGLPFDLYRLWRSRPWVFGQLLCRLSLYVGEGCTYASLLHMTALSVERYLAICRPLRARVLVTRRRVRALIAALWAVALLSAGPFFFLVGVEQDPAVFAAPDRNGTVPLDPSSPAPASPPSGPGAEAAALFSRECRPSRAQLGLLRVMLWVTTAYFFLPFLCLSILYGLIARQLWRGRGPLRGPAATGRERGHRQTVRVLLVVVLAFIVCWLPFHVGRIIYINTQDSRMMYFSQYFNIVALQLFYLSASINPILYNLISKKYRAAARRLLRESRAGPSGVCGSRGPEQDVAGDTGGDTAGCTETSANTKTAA

In the case of `CC[C@H]1OC(=O)[C@H](C)[C@@H](O[C@H]2C[C@@](C)(OC)[C@@H](O)[C@H](C)O2)[C@H](C)[C@@H](O[C@@H]2O[C@H](C)C[C@H](N(C)C(C)C)[C@H]2O)[C@](C)(O)C[C@@H](C)[C@H](NS(=O)(=O)C2CC2)[C@H](C)[C@@H](O)[C@]1(C)O` [Compound A-41], the EC50 in assay [1] (setting [3]) was determined as 0.17 µM. The MIC in assay [2] came to 128 µg/mL (≈ 148 µM).
For the compound `CC[C@H]1OC(=O)[C@H](C)[C@@H](O[C@H]2C[C@@](C)(OC)[C@@H](O)[C@H](C)O2)[C@H](C)[C@@H](O[C@@H]2O[C@H](C)C[C@H](N(C)C3CCC3)[C@H]2O)[C@](C)(O)C[C@@H](C)[C@H](NS(=O)(=O)C2CC2)[C@H](C)[C@@H](O)[C@]1(C)O` [Compound A-42], the concentration for a half-maximal effect (EC50) in assay [1] (setting [3]) came out at 0.34 µM. Further, the MIC in assay [2] is greater than 128 µg/mL.
Taken in the same sequence, the figures for `CC[C@H]1OC(=O)[C@H](C)[C@@H](O[C@H]2C[C@@](C)(OC)[C@@H](O)[C@H](C)O2)[C@H](C)[C@@H](O[C@@H]2O[C@H](C)C[C@H](N(C)C(C)C)[C@H]2O)[C@](C)(O)C[C@@H](C)[C@H](NS(=O)(=O)C(F)(F)F)[C@H](C)[C@@H](O)[C@]1(C)O` [Compound A-43] were 0.33 µM and 64 µg/mL (≈ 71.5 µM).
In the case of `CC[C@H]1OC(=O)[C@H](C)[C@@H](O[C@H]2C[C@@](C)(OC)[C@@H](O)[C@H](C)O2)[C@H](C)[C@@H](O[C@@H]2O[C@H](C)C[C@H](N(C)C(C)C)[C@H]2O)[C@](C)(O)C[C@@H](C)[C@H](OCC(=O)NC2CCC2)[C@H](C)[C@@H](O)[C@]1(C)O` [Compound A-45], the 50% effective concentration (EC50) in assay [1] (setting [3]) came to 0.028 µM. The MIC in assay [2] is 128 µg/mL (≈ 146 µM).
On to `CC[C@H]1OC(=O)[C@H](C)[C@@H](O[C@H]2C[C@@](C)(OC)[C@@H](O)[C@H](C)O2)[C@H](C)[C@@H](O[C@@H]2O[C@H](C)C[C@H](N(C)C(C)C)[C@H]2O)[C@](C)(O)C[C@@H](C)[C@H](OCC(=O)NC2CC2)[C@H](C)[C@@H](O)[C@]1(C)O` [Compound A-46], for which, in assay [1] (setting [3]), the EC50 stood at 0.031 µM. Besides, in assay [2], the MIC was 128 µg/mL (≈ 149 µM).
`CC[C@H]1OC(=O)[C@H](C)[C@@H](O[C@H]2C[C@@](C)(OC)[C@@H](O)[C@H](C)O2)[C@H](C)[C@@H](O[C@@H]2O[C@H](C)C[C@H](N(C)C(C)C)[C@H]2O)[C@](C)(O)C[C@@H](C)[C@H](OCC(=O)NCCN2CCOCC2)[C@H](C)[C@@H](O)[C@]1(C)O` [Compound A-48]: in assay [1] (setting [3]), the EC50 was determined as 0.14 µM. In assay [2], the MIC worked out at 64 µg/mL (≈ 68.5 µM).
In assay [1], `CC[C@H]1OC(=O)[C@H](C)[C@@H](O[C@H]2C[C@@](C)(OC)[C@@H](O)[C@H](C)O2)[C@H](C)[C@@H](O[C@@H]2O[C@H](C)C[C@H](N(C)C(C)C)[C@H]2O)[C@](C)(O)C[C@@H](C)[C@H](OCCF)[C@H](C)[C@@H](O)[C@]1(C)O` [Compound A-49] registered an EC50 of 0.14 µM. The MIC in assay [2] came out at 128 µg/mL (≈ 158 µM).
Take `CC[C@H]1OC(=O)[C@H](C)[C@@H](O[C@H]2C[C@@](C)(OC)[C@@H](O)[C@H](C)O2)[C@H](C)[C@@H](O[C@@H]2O[C@H](C)C[C@H](N(C)C(C)C)[C@H]2O)[C@](C)(O)C[C@@H](C)[C@H](OCCCCCC(N)=O)[C@H](C)[C@@H](O)[C@]1(C)O` [Compound A-50]: the half-maximal effective concentration (EC50) in assay [1] (setting [3]) was determined as 0.17 µM. The MIC in assay [2] is greater than 128 µg/mL.
With `CC[C@H]1OC(=O)[C@H](C)[C@@H](O[C@H]2C[C@@](C)(OC)[C@@H](O)[C@H](C)O2)[C@H](C)[C@@H](O[C@@H]2O[C@H](C)C[C@H](N(C)C3CCC3)[C@H]2O)[C@](C)(O)C[C@@H](C)[C@H](OCC(=O)NC)[C@H](C)[C@@H](O)[C@]1(C)O` [Compound A-51], the EC50 in assay [1] (setting [3]) stood at 0.51 µM. Further, the MIC in assay [2] is greater than 128 µg/mL.
In the case of `CC[C@H]1OC(=O)[C@H](C)[C@@H](O[C@H]2C[C@@](C)(OC)[C@@H](O)[C@H](C)O2)[C@H](C)[C@@H](O[C@@H]2O[C@H](C)C[C@H](N(C)C(C)C)[C@H]2O)[C@](C)(O)C[C@@H](C)[C@H](OCC(=O)NCC(F)(F)F)[C@H](C)[C@@H](O)[C@]1(C)O` [Compound A-52], the EC50 in assay [1] (setting [3]) came to 0.16 µM. In addition, the MIC in assay [2] was determined as 128 µg/mL (≈ 142 µM).
`CC[C@H]1OC(=O)[C@H](C)[C@@H](O[C@H]2C[C@@](C)(OC)[C@@H](O)[C@H](C)O2)[C@H](C)[C@@H](O[C@@H]2O[C@H](C)C[C@H](N(C)C(C)C)[C@H]2O)[C@](C)(O)C[C@@H](C)[C@H](OCC(=O)NC(C)C)[C@H](C)[C@@H](O)[C@]1(C)O` [Compound A-53]: the EC50 in assay [1] (setting [3]) was 0.14 µM. Moreover, the MIC in assay [2] came out at 128 µg/mL (≈ 148 µM).
The matching figures for `CCNC(=O)NCCO[C@@H]1[C@H](C)[C@@H](O)[C@](C)(O)[C@@H](CC)OC(=O)[C@H](C)[C@@H](O[C@H]2C[C@@](C)(OC)[C@@H](O)[C@H](C)O2)[C@H](C)[C@@H](O[C@@H]2O[C@H](C)C[C@H](N(C)C(C)C)[C@H]2O)[C@](C)(O)C[C@H]1C` [Compound A-54]: 0.1 µM and greater than 128 µg/mL.
With `CC[C@H]1OC(=O)[C@H](C)[C@@H](O[C@H]2C[C@@](C)(OC)[C@@H](O)[C@H](C)O2)[C@H](C)[C@@H](O[C@@H]2O[C@H](C)C[C@H](N(C)C(C)C)[C@H]2O)[C@](C)(O)C[C@@H](C)[C@H](OCc2nc[nH]n2)[C@H](C)[C@@H](O)[C@]1(C)O` [Compound A-55], the concentration for a half-maximal effect (EC50) in assay [1] (setting [3]) is 0.054 µM. The MIC in assay [2] is greater than 128 µg/mL.
The matching figures for `CC[C@H]1OC(=O)[C@H](C)[C@@H](O[C@H]2C[C@@](C)(OC)[C@@H](O)[C@H](C)O2)[C@H](C)[C@@H](O[C@@H]2O[C@H](C)C[C@H](N(C)C(C)C)[C@H]2O)[C@](C)(O)C[C@@H](C)[C@H](OCC(=O)O)[C@H](C)[C@@H](O)[C@]1(C)O` [Compound A-56]: 0.15 µM and 128 µg/mL (≈ 156 µM).
Turning to `CCCNC(=S)NCCO[C@@H]1[C@H](C)[C@@H](O)[C@](C)(O)[C@@H](CC)OC(=O)[C@H](C)[C@@H](O[C@H]2C[C@@](C)(OC)[C@@H](O)[C@H](C)O2)[C@H](C)[C@@H](O[C@@H]2O[C@H](C)C[C@H](N(C)C(C)C)[C@H]2O)[C@](C)(O)C[C@H]1C` [Compound A-57], the concentration giving a half-maximal response (EC50) in assay [1] (setting [3]) came out at 0.21 µM. Moreover, the MIC in assay [2] came to 128 µg/mL (≈ 141 µM).
As for `CC[C@H]1OC(=O)[C@H](C)[C@@H](O[C@H]2C[C@@](C)(OC)[C@@H](O)[C@H](C)O2)[C@H](C)[C@@H](O[C@@H]2O[C@H](C)C[C@H](N(C)C(C)C)[C@H]2O)[C@](C)(O)C[C@@H](C)[C@H](OCCNC(=O)c2ccc3[nH]cnc3c2)[C@H](C)[C@@H](O)[C@]1(C)O` [Compound A-58], in assay [1] (setting [3]), the EC50 stood at 0.037 µM. In assay [2], the MIC is 128 µg/mL (≈ 135 µM).
As for `CC[C@H]1OC(=O)[C@H](C)[C@@H](O[C@H]2C[C@@](C)(OC)[C@@H](O)[C@H](C)O2)[C@H](C)[C@@H](O[C@@H]2O[C@H](C)C[C@H](N(C)C(C)C)[C@H]2O)[C@](C)(O)C[C@@H](C)[C@H](OCC(=O)NCc2ccccc2)[C@H](C)[C@@H](O)[C@]1(C)O` [Compound A-59], in assay [1] (setting [3]), the EC50 worked out at 0.079 µM. In addition, the MIC in assay [2] worked out at 128 µg/mL (≈ 140 µM).
As for `CC[C@H]1OC(=O)[C@H](C)[C@@H](O[C@H]2C[C@@](C)(OC)C[C@H](C)O2)[C@H](C)[C@@H](O[C@@H]2O[C@H](C)C[C@H](N(C)C(C)C)[C@H]2O)[C@](C)(O)C[C@@H](C)[C@H](OCC(=O)N(C)C)[C@H](C)[C@@H](O)[C@]1(C)O` [Compound A-60], the concentration for a half-maximal effect (EC50) in assay [1] (setting [3]) stood at 0.19 µM. Further, the MIC in assay [2] was determined as 128 µg/mL (≈ 154 µM).
On to `CC[C@H]1OC(=O)[C@H](C)[C@@H](O[C@H]2C[C@@](C)(OC)C[C@H](C)O2)[C@H](C)[C@@H](O[C@@H]2O[C@H](C)C[C@H](N(C)C(C)C)[C@H]2O)[C@](C)(O)C[C@@H](C)[C@H](OCC(=O)NC)[C@H](C)[C@@H](O)[C@]1(C)O` [Compound A-61], for which the concentration for a half-maximal effect (EC50) in assay [1] (setting [3]) came to 0.017 µM. Further, the MIC in assay [2] is 128 µg/mL (≈ 156 µM).
As to `CC[C@H]1OC(=O)[C@H](C)[C@@H](O[C@H]2C[C@@](C)(OC)[C@@H](O)[C@H](C)O2)[C@H](C)[C@@H](O[C@@H]2O[C@H](C)C[C@H](N(C)C(C)C)[C@H]2O)[C@](C)(O)C[C@@H](C)[C@H](OCc2ncc[nH]2)[C@H](C)[C@@H](O)[C@]1(C)O` [Compound A-62], the concentration giving a half-maximal response (EC50) in assay [1] (setting [3]) was 0.063 µM. Further, the MIC in assay [2] amounted to 128 µg/mL (≈ 152 µM).
Turning to `CC[C@H]1OC(=O)[C@H](C)[C@@H](O[C@H]2C[C@@](C)(OC)[C@@H](O)[C@H](C)O2)[C@H](C)[C@@H](O[C@@H]2O[C@H](C)C[C@H](N(C)C(C)C)[C@H]2O)[C@](C)(O)C[C@@H](C)[C@H](OCC(=O)NCCOC)[C@H](C)[C@@H](O)[C@]1(C)O` [Compound A-63], the EC50 in assay [1] (setting [3]) is 0.05 µM. Besides, the MIC in assay [2] was 128 µg/mL (≈ 146 µM).
